# Results as given in patent US10538555B2, “Macrocyclic inhibitors of the PD-1/PD-L1 and CD80(B7-1)/PD-L1 protein/protein interactions” (BRISTOL-MYERS SQUIBB COMPANY, priority 2014, dated 2020).
# pIC50: −log10 of the molar value. Where a SMILES comes first, the peptide text is derived from it. Bridges are numbered along the chain shown (N, C = ends). [ ]: non-standard residue; d: D form. Hyp = O=C(O)[C@@H]1C[C@@H](O)CN1; NMeNle = CCCC[C@H](NC)C(=O)O; Pip = O=C(O)[C@@H]1CCCCN1; Dab = NCC[C@H](N)C(=O)O; Dap = NC[C@H](N)C(=O)O
# Molecular target: T1, Human PD-L1/PD-1 (Homo sapiens, UniProt Q9NZQ7)
# T1 construct: TVMV protease cleavage site (C); made in house; host or cells: HEK293T cells
# Assay: HTRF Human PD-L1/PD-1 binding assay (PD-1-Ig/PD-L1-His)
# Conditions: PD-L1-His 10 nM, PD-1-Ig 20 nM; class symbol; read-out: HTRF Human PD-L1/PD-1 Binding Assay IC50 Range
# Description: Methods for Testing the Ability of Macrocyclic Peptides to Compete for the Binding of PD-1 to PD-L1 Using Homogenous Time-Resolved Fluorescence (HTRF) Binding Assays
# The ability of the macrocyclic peptides of the present disclosure to bind to PD-L1 was investigated using a PD-1/PD-L1 Homogenous Time-Resolved Fluorescence (HTRF) binding assay.
# Homogenous Time-Resolved Fluorescence (HTRF) Assays of Binding of Soluble PD-1 to Soluble PD-L1. Soluble PD-1 and soluble PD-L1 refers to proteins with carboxyl-end truncations that remove the transmembrane-spanning regions and are fused to heterologous sequences, specifically the Fc portion of the human immunoglobuling G sequence (Ig) or the hexahistidine epitope tag (His). All binding studies were performed in an HTRF assay buffer consisting of dPBS supplemented with 0.1% (w/v) bovine serum albumin and 0.05% (v/v) Tween-20. For the PD-1-Ig/PD-L1-His binding assay, inhibitors were pre-incubated with PD-L1-His (10 nM final) for 15 m in 4 μl of assay buffer, followed by addition of PD-1-Ig (20 nM final) in 1 μl of assay buffer and further incubation for 15 m. PD-L1 fusion proteins from either human, cynomolgus macaques, or mouse were used. HTRF detection was achieved using europium crypate-labeled anti-Ig monoclonal antibody (1 nM final) and allophycocyanin (APC) labeled anti-His monoclonal antibody (20 nM final). Antibodies were diluted in HTRF detection buffer and 5 μl was dispensed on top of binding reaction. The reaction was allowed to equilibrate for 30 minutes and signal (665 nm/620 nm ratio) was obtained using an EnVision fluorometer. Additional binding assays were established between PD-1-Ig/PD-L2-His (20 and 5 nM, respectively), CD80-His/PD-L1-Ig (100 and 10 nM, respectively) and CD80-His/CTLA4-Ig (10 and 5 nM, respectively). Competition studies between biotinylated Compound No. 71 and human PD-L1-His were performed as follows. Macrocyclic peptide inhibitors were pre-incubated with PD-L1-His (10 nM final) for 60 minutes in 4 μl of assay buffer followed by addition of biotinylated Compound No. 71 (0.5 nM final) in 1 μl of assay buffer. Binding was allowed to equilibrate for 30 minutes followed by addition of europium crypated labeled Streptavidin (2.5 pM final) and APC-labeled anti-His (20 nM final) in 5 μl of HTRF buffer. The reaction was allowed to equilibrate for 30 m and signal (665 nm/620 nm ratio) was obtained using an EnVision fluorometer.
# Recombinant Proteins. Carboxyl-truncated human PD-1 (amino acids 25-167) with a C-terminal human Ig epitope tag [hPD-1 (25-167)-3S-IG] and human PD-L1 (amino acids 18-239) with a C-terminal His epitope tag [hPD-L1([…])-tobacco vein mottling virus protease cleavage site (TVMV)-His] were expressed in HEK293T cells and purified sequentially by rProteinA affinity chromatography and size exclusion chromatography.
# T1 sequence (Q9NZQ7 with tags, fused parts or gaps): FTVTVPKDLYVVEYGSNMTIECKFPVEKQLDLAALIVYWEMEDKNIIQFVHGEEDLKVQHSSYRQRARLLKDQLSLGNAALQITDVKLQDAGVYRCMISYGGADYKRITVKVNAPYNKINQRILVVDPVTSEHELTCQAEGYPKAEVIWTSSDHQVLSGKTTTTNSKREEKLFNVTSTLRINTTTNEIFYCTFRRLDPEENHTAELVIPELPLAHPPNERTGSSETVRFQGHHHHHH
row,pIC50,Structure (SMILES)
1,8.00 to 9.00,CCCC[C@H]1C(=O)N(C)[C@@H](CCCC)C(=O)N[C@@H](CCC(=O)O)C(=O)N[C@H](C(=O)NCC(N)=O)CSCC(=O)N[C@@H](Cc2ccc(O)cc2)C(=O)N2CCCC[C@H]2C(=O)N[C@@H](CC(N)=O)C(=O)N2CCC[C@H]2C(=O)N[C@@H](Cc2cnc[nH]2)C(=O)N[C@@H](CCC(N)=O)C(=O)N2C[C@H](O)C[C@H]2C(=O)N[C@@H](Cc2c[nH]c3ccccc23)C(=O)N[C@@H](CO)C(=O)N[C@@H](Cc2c[nH]c3ccccc23)C(=O)N1C [Example 1250] ({CH2CO}-Y[Pip]NPHQ[Hyp]WSW[NMeNle][NMeNle]ECG-NH2; thioether N-14)
2,8.00 to 9.00,CCCC[C@H]1C(=O)N(C)[C@@H](CCCC)C(=O)N[C@@H](C)C(=O)N[C@H](C(=O)NCC(N)=O)CSCC(=O)NC(Cc2ccc(O)cc2)C(=O)N2CCCC[C@H]2C(=O)N[C@@H](CC(N)=O)C(=O)N2CCC[C@H]2C(=O)N[C@@H](Cc2c[nH]cn2)C(=O)N[C@@H](CC(C)C)C(=O)N2C[C@H](O)C[C@H]2C(=O)N[C@@H](Cc2c[nH]c3ccccc23)C(=O)N[C@@H](CO)C(=O)N[C@@H](Cc2c[nH]c3ccccc23)C(=O)N1C (stereo partly shown) [Example 1251]
3,8.00 to 9.00,CCCC[C@H]1C(=O)N(C)[C@@H](CCCC)C(=O)N[C@@H](CCC(=O)O)C(=O)N[C@H](C(=O)NCC(N)=O)CSCC(=O)N[C@@H](Cc2ccc(O)cc2)C(=O)N2CCCC[C@H]2C(=O)N[C@@H](CC(N)=O)C(=O)N2CCC[C@H]2C(=O)N[C@@H](Cc2cnc[nH]2)C(=O)N[C@@H](CCC(=O)O)C(=O)N2C[C@H](O)C[C@H]2C(=O)N[C@@H](Cc2c[nH]c3ccccc23)C(=O)N[C@@H](CO)C(=O)N[C@@H](Cc2c[nH]c3ccccc23)C(=O)N1C [Example 1252] ({CH2CO}-Y[Pip]NPHE[Hyp]WSW[NMeNle][NMeNle]ECG-NH2; thioether N-14)
4,8.00 to 9.00,CCCC[C@H]1C(=O)N(C)[C@@H](CCCC)C(=O)N[C@@H](CCC(=O)O)C(=O)N[C@H](C(=O)NCC(N)=O)CSCC(=O)N[C@@H](Cc2ccc(O)cc2)C(=O)N2CCCC[C@H]2C(=O)N[C@@H](CC(=O)O)C(=O)N2CCC[C@H]2C(=O)N[C@@H](Cc2cnc[nH]2)C(=O)N[C@@H](CCC(=O)O)C(=O)N2C[C@H](O)C[C@H]2C(=O)N[C@@H](Cc2c[nH]c3ccccc23)C(=O)N[C@@H](CO)C(=O)N[C@@H](Cc2c[nH]c3ccccc23)C(=O)N1C [Example 1256] ({CH2CO}-Y[Pip]DPHE[Hyp]WSW[NMeNle][NMeNle]ECG-NH2; thioether N-14)
5,8.00 to 9.00,CCCC[C@H]1C(=O)N(C)[C@@H](CCCC)C(=O)N[C@@H](C)C(=O)N[C@H](C(=O)NCC(N)=O)CSCC(=O)N[C@@H](Cc2ccc(O)cc2)C(=O)N2CCCC[C@H]2C(=O)N[C@@H](CC(=O)O)C(=O)N2CCC[C@H]2C(=O)N[C@@H](CN)C(=O)N[C@@H](CCC(N)=O)C(=O)N2C[C@H](O)C[C@H]2C(=O)N[C@@H](Cc2c[nH]c3ccccc23)C(=O)N[C@@H](CO)C(=O)N[C@@H](Cc2c[nH]c3ccccc23)C(=O)N1C [Example 1257] ({CH2CO}-Y[Pip]DP[Dap]Q[Hyp]WSW[NMeNle][NMeNle]ACG-NH2; thioether N-14)
6,8.00 to 9.00,CCCC[C@H]1C(=O)N(C)[C@@H](CCCC)C(=O)N[C@@H](C)C(=O)N[C@H](C(=O)NCC(N)=O)CSCC(=O)N[C@@H](Cc2ccc(O)cc2)C(=O)N2CCCC[C@H]2C(=O)N[C@@H](CC(=O)O)C(=O)N2CCC[C@H]2C(=O)N[C@@H](CN)C(=O)N[C@@H](CCC(=O)O)C(=O)N2C[C@H](O)C[C@H]2C(=O)N[C@@H](Cc2c[nH]c3ccccc23)C(=O)N[C@@H](CO)C(=O)N[C@@H](Cc2c[nH]c3ccccc23)C(=O)N1C [Example 1258] ({CH2CO}-Y[Pip]DP[Dap]E[Hyp]WSW[NMeNle][NMeNle]ACG-NH2; thioether N-14)
7,8.00 to 9.00,CCCC[C@H]1C(=O)N(C)[C@@H](CCCC)C(=O)N[C@@H](CC(=O)O)C(=O)N[C@H](C(=O)NCC(N)=O)CSCC(=O)N[C@@H](Cc2ccc(O)cc2)C(=O)N2CCCC[C@H]2C(=O)N[C@@H](CC(=O)O)C(=O)N2CCC[C@H]2C(=O)N[C@@H](Cc2cnc[nH]2)C(=O)N[C@@H](CCCCN)C(=O)N2C[C@H](O)C[C@H]2C(=O)N[C@@H](Cc2c[nH]c3ccccc23)C(=O)N[C@@H](CCCCN)C(=O)N[C@@H](Cc2c[nH]c3ccccc23)C(=O)N1C [Example 1259] ({CH2CO}-Y[Pip]DPHK[Hyp]WKW[NMeNle][NMeNle]DCG-NH2; thioether N-14)
8,8.00 to 9.00,CCCC[C@H]1C(=O)N(C)[C@@H](CCCC)C(=O)N[C@@H](CCC(=O)O)C(=O)N[C@H](C(=O)NCC(N)=O)CSCC(=O)N[C@@H](Cc2ccc(O)cc2)C(=O)N2CCCC[C@H]2C(=O)N[C@@H](CC(=O)O)C(=O)N2CCC[C@H]2C(=O)N[C@@H](Cc2cnc[nH]2)C(=O)N[C@@H](CCC(N)=O)C(=O)N2C[C@H](O)C[C@H]2C(=O)N[C@@H](Cc2c[nH]c3ccccc23)C(=O)N[C@@H](CO)C(=O)N[C@@H](Cc2c[nH]c3ccccc23)C(=O)N1C [Example 1260] ({CH2CO}-Y[Pip]DPHQ[Hyp]WSW[NMeNle][NMeNle]ECG-NH2; thioether N-14)
9,8.00 to 9.00,CCCC[C@H]1C(=O)N(C)[C@@H](CCCC)C(=O)N[C@@H](C)C(=O)N[C@H](C(=O)NCC(N)=O)CSCC(=O)N[C@@H](Cc2ccc(O)cc2)C(=O)N2CCCC[C@H]2C(=O)N[C@@H](CC(=O)O)C(=O)N2CCC[C@H]2C(=O)N[C@@H](Cc2cnc[nH]2)C(=O)N[C@@H](CCC(N)=O)C(=O)N2C[C@H](O)C[C@H]2C(=O)N[C@@H](Cc2c[nH]c3ccccc23)C(=O)N[C@@H](CO)C(=O)N[C@@H](Cc2c[nH]c3ccccc23)C(=O)N1C [Example 1261] ({CH2CO}-Y[Pip]DPHQ[Hyp]WSW[NMeNle][NMeNle]ACG-NH2; thioether N-14)
10,8.00 to 9.00,CCCC[C@H]1C(=O)N(C)[C@@H](CCCC)C(=O)N[C@@H](CCC(=O)O)C(=O)N[C@H](C(=O)NCC(N)=O)CSCC(=O)N[C@@H](Cc2ccc(O)cc2)C(=O)N2CCCC[C@H]2C(=O)N[C@@H](CC(=O)O)C(=O)N2CCC[C@H]2C(=O)N[C@@H](CN)C(=O)N[C@@H](CCC(=O)O)C(=O)N2C[C@H](O)C[C@H]2C(=O)N[C@@H](Cc2c[nH]c3ccccc23)C(=O)N[C@@H](CCN)C(=O)N[C@@H](Cc2c[nH]c3ccccc23)C(=O)N1C [Example 1262] ({CH2CO}-Y[Pip]DP[Dap]E[Hyp]W[Dab]W[NMeNle][NMeNle]ECG-NH2; thioether N-14)
11,8.00 to 9.00,CCCC[C@H]1C(=O)N(C)[C@@H](CCCC)C(=O)N[C@@H](CC(C)C)C(=O)N[C@H](C(=O)NCC(N)=O)CSCC(=O)N[C@@H](Cc2ccc(O)cc2)C(=O)N2CCCC[C@H]2C(=O)N[C@@H](CC(=O)O)C(=O)N2CCC[C@H]2C(=O)N[C@@H](CN)C(=O)N[C@@H](CCC(=O)O)C(=O)N2C[C@H](O)C[C@H]2C(=O)N[C@@H](Cc2c[nH]c3ccccc23)C(=O)N[C@@H](CO)C(=O)N[C@@H](Cc2c[nH]c3ccccc23)C(=O)N1C [Example 1272] ({CH2CO}-Y[Pip]DP[Dap]E[Hyp]WSW[NMeNle][NMeNle]LCG-NH2; thioether N-14)
12,8.00 to 9.00,CCCC[C@H]1C(=O)N(C)[C@@H](CCCC)C(=O)N[C@@H](CC(C)C)C(=O)N[C@H](C(=O)NCC(N)=O)CSCC(=O)N[C@@H](Cc2ccc(O)cc2)C(=O)N2CCCC[C@H]2C(=O)N[C@@H](CC(N)=O)C(=O)N2CCC[C@H]2C(=O)N[C@@H](Cc2cnc[nH]2)C(=O)N[C@@H](CCC(N)=O)C(=O)N2C[C@H](O)C[C@H]2C(=O)N[C@@H](Cc2c[nH]c3ccccc23)C(=O)N[C@@H](CO)C(=O)N[C@@H](Cc2c[nH]c3ccccc23)C(=O)N1C [Example 1273] ({CH2CO}-Y[Pip]NPHQ[Hyp]WSW[NMeNle][NMeNle]LCG-NH2; thioether N-14)

# Same assay, conditions: PD-L1-His 10 nM, PD-1-Ig 20 nM; read-out: HTRF Human PD-L1/PD-1 Binding Assay IC50
row,pIC50,Structure (SMILES)
1,8.59,CCCC[C@H]1C(=O)N(C)[C@@H](CCCC)C(=O)N[C@@H](C)C(=O)N[C@H](C(=O)NCC(N)=O)CSCC(=O)N[C@@H](Cc2ccc(O)cc2)C(=O)N2CCCC[C@H]2C(=O)N[C@@H](CC(N)=O)C(=O)N2CCC[C@H]2C(=O)N[C@@H](Cc2cnc[nH]2)C(=O)N[C@@H](CCC(N)=O)C(=O)N2C[C@H](O)C[C@H]2C(=O)N[C@@H](Cc2c[nH]c3ccccc23)C(=O)N[C@@H](CO)C(=O)N[C@@H](Cc2c[nH]c3ccccc23)C(=O)N1C [Example 1255]
